Entries after “also recorded” stand apart in the source; their conditions may differ.

What all share (format): cell-based, human
For experiment [1], the system named is T47D cells with doxycycline inducible PSMD2 KD (Lo19S) versus control cells. The experiment can be described thus: Lo19S T47D drug screen (PSMD2 KD versus control cells, CellTiter-Glo). As to conditions: T47D, Lo19S state by dox-inducible PSMD2 shRNA; compound library screen; 72 h; CellTiter-Glo. As to the method: The effect of each drug on viability of cells was calculated by averaging the duplicate experiments. The data is plotted in FIG. 16 as the log2 of the ratio of viability of PSMD2 KD versus control cells (log2 (shPSMD2/Control)). […] The Selleck natural product library (NPC) comprising 502 compounds in 5 doses and the. NIH bioactive compound library that includes 731 compounds in 4 doses were also screened using the same system.
A deeper understanding of the proteasome inhibitor resistant state could yield insights into the molecular mechanisms activated by cells to cope with proteotoxic stress and elucidate new therapeutic strategies for cancer. With these goals in mind, we screened mechanistically diverse small molecule libraries to identify compound sensitivities altered by the Lo19S and Hi-OXPHOS states. An initial screen was conducted in the isogenic T47D model with transient induction of the Lo19S state as described above, We evaluated >4300 mechanistically well-defined compounds within 4 libraries. The compounds included approved cancer drugs (Selleck anti-cancer library: CDL), common natural products (Natural product library: NPC) and an ^-NIH bioactives library (NIH). Each of these compounds was tested at ≥4 concentrations. (Table S5, data not shown), An additional 2866 compounds from the Boston University's Chemical Methodology and Library Development (CMLD-BU) small molecule collection was screened at a single dose (BULL, see Table S5).
Generation of the Lo19S T47D cell line—For the generation of the T47D Tet-inducible PSMD2 knockdown cell line—the TRIPZ vector with an inducible shRNA targeting PSMD2 was purchased from Dharmacon (clone V3THS_403760). It was introduced to the T47D cells according to manufactures protocol and cells were selected with puromycin […] for one week. The cells were exposed to doxycycline for 24 hours and cells were FACS sorted for the top 10% of most RFP expressing cells (highest expression of shRNA). The cells were further cultured in the absence of doxycycline and PSMD2 knockdown was induced as specified in the text.
After 48 hours the cells were collected counted and plated (in the absence of dox) at 1000 cells/well in 384-well opaque, white assay plates (Coming, NY), 50 uL per well, and incubated overnight at 37° C./5% CO2. Compound stocks from the Cancer drug library containing 349 bioactive compounds that were arrayed in dose 10 nM, 100 nM, 1 uM, 10 uM (Selleck anti-cancer compound library L3000), the natural products library containing 502 compounds that were utilized in 5 doses (dilution of 1:1000 of 2ug/ml, 0.2 ug/ml, 0.002/ug/ml, 0.0002 ug/ml), the NIH bioactive library including 731 drugs in dose of 10 nM, 100 nM, 1 uM, 10 uM and the Boston University's CMLD (Chemical Methodology and Library Development) compound deck containing 2866 compounds in one dose (10 uM), including novel chemotypes that uniquely probe three-dimensional space by employing stereochemical and positional variation within the molecular framework as diversity elements in library design. 50 nl of compounds were pin-transferred (V&P Scientific, CA, pin tool mounted onto Tecan Freedom Evo 150 MCA96 head, Tecan, Calif.) into duplicate assay plates and incubated for 72 h. The DMSO content was 0.1% within each well, Per plate, there are 32 wells of DMSO vehicle control and 32 wells of positive control compounds. After three days of incubation, 10 uL of CellTiter-Glo (Promega, Wis.) was added to each well, incubated for 10 minutes and the luminescence output was read on the M1000 Infinite Pro plate reader (Tecan, Calif.).

The test system of experiment [2] is IMR32 (reduced PSMD5) and Kelly neuroblastoma cells. The experiment can be described thus: Viability of IMR32 versus Kelly neuroblastoma cells (CellTiter-Glo). As to conditions: for sensitivity of IMR32 cells relative to Kelly cells (fold viability): 72 hours after addition, CellTiter-Glo. As to the method:
To determine whether these compounds also differentially affect cells with reduced expression of PSDMS, IMR32 and Kelly cells were each cultured in the presence of ABT-263, disulfiram, or elesclomol across a range of concentrations. Cell viability was measured by CellTiter-Glo® Luminescent Cell Viability Assay 72 hours after addition of the compound to cells. The fold viability relative to culture in the absence of the compound was determined for each cell line. […] In the experiment shown in FIG. 24, the lowest lower concentration of ABT-263 and disulfiram tested was 1 uM.
ABT-263 targets several members of the BCL2 family, including BCL2 and BCL-XL.

In experiment [3] the test system is T47D cells. The experiment can be described thus: The glucose/galactose drug screen. Particulars: for relative viability change of cells grown in glucose versus galactose: 10 mM Glucose or Galactose, Selleck anti cancer and natural product libraries.

Turning to `CC1(C)CCC(c2ccc(Cl)cc2)=C(CN2CCN(c3ccc(C(=O)NS(=O)(=O)c4ccc(N[C@H](CCN5CCOCC5)CSc5ccccc5)c(S(=O)(=O)C(F)(F)F)c4)cc3)CC2)C1` [ABT-263, navitoclax], the “viability of PSMD2 KD versus control cells (log2 (shPSMD2/Control))” value in experiment [1] is “selectively reduce the viability of PSMD2 KD cells versus control cells; also recorded: selectively sensitized cells”. Also, the “sensitivity of IMR32 cells relative to Kelly cells (fold viability)” value in experiment [2] is on record as “dramatically more sensitive; also recorded: significantly more sensitive”. Moreover, the “preferential sensitivity of IMR32 versus Kelly cells, compared among BCL2 family inhibitors” value in experiment [2] (ABT-263 versus more specific BCL2, BCL-XL and MCL-1 inhibitors) is recorded as “much greater for ABT-263”. The “effect of reintroduction (forced expression) of the PSMD5 subunit in IMR32 cells on sensitivity” value in experiment [2] (IMR32 cells, PSMD5 epigenetically suppressed) was “did not significantly alter”.

`CC(C)C[C@H](NC(=O)[C@H](Cc1ccccc1)NC(=O)c1cnccn1)B(O)O` [bortezomib]: the “viability of PSMD2 KD versus control cells (log2 (shPSMD2/Control))” value in experiment [1] is given as “selectively reduce viability of control cells versus PSMD2 KD cells”. Further, the “sensitivity of IMR32 cells relative to Kelly cells (fold viability)” value in experiment [2] was “increased resistance”. Moreover, in experiment [3], the “relative viability change of cells grown in glucose versus galactose” value is listed as “strongest hits in this screen”.

`CN(NC(=O)CC(=O)NN(C)C(=S)c1ccccc1)C(=S)c1ccccc1` [elesclomol]: the “viability of PSMD2 KD versus control cells (log2 (shPSMD2/Control))” value in experiment [1] was “selectively reduce the viability of PSMD2 KD cells versus control cells; also recorded: selectively sensitized cells; also recorded: highly effective in slowing the growth of cells in the Lo19S state”. Moreover, the “sensitivity of IMR32 cells relative to Kelly cells (fold viability)” value in experiment [2] is on record as “dramatically more sensitive”. The “relative viability change of cells grown in glucose versus galactose” value in experiment [3] is recorded as “cells that respire are predominantly sensitive; also recorded: preferentially targeted respiring cells; also recorded: more potent in cells in the Hi-OXPHOS state”. Besides, the “number of concentrations at which respiring cells were preferentially targeted” value in experiment [3] (galactose versus glucose) came to 5 concentrations.

Values taken from patent US20180353445A1, “METHODS AND COMPOSITIONS RELATING TO PROTEASOME INHIBITOR RESISTANCE” (Whitehead Institute for Biomedical Research, priority 2017, published 2018).
